Publication PMC9143527, “A Novel Strategy for Regulating mRNA’s Degradation via Interfering the AUF1’s Binding to mRNA” (Molecules, 2022)

Key:
p37AUF1 (AUF1, hnRNP D) [1] = molecular target: T1, p37AUF1 (AUF1, hnRNP D) (Homo sapiens, UniProt Q14103); test: SPR (Biacore 8K, CM5 chip, amine coupling); type: binding; conditions: 20 mM PB pH 7.4 at immobilization; 5% DMSO; compound at 0-80 uM
T1 construct: gene HNRNPD; recombinant purified p37 isoform; expression details and tags only in supplement
T1 sequence (Q14103 2-287 isoform Q14103-4): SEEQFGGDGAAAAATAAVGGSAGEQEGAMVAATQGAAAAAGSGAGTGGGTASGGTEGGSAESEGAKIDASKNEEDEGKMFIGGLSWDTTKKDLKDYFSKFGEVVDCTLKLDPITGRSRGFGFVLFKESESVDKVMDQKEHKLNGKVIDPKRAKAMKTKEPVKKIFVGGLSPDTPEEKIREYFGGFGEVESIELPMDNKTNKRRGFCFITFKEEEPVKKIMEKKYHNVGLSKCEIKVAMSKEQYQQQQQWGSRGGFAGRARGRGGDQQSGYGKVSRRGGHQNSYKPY

p37AUF1 (AUF1, hnRNP D) [2] = molecular target: T1, p37AUF1 (AUF1, hnRNP D); test: REMSA, inhibition of AUF1-RNA complex formation; type: binding; conditions: 750 nM AUF1, 250 nM FAM-labelled TNF ARE RNA; 10 mM Tris-HCl pH 8.0, 50 mM KCl, 2 mM DTT, 0.5 mM EDTA; on ice
AUF1 (endogenous, CETSA) = molecular target: T2, AUF1 (endogenous, CETSA) (Homo sapiens, UniProt Q14103); test: CETSA, Western blot; type: cell-based; conditions: HepG2, SK-MEL-2, HCT-116 cells; 1 h treatment at 1, 3.5 or 6 uM
T2 construct: gene HNRNPD; endogenous AUF1 in intact cells, detected by Western blot
T2 sequence (Q14103 2-355): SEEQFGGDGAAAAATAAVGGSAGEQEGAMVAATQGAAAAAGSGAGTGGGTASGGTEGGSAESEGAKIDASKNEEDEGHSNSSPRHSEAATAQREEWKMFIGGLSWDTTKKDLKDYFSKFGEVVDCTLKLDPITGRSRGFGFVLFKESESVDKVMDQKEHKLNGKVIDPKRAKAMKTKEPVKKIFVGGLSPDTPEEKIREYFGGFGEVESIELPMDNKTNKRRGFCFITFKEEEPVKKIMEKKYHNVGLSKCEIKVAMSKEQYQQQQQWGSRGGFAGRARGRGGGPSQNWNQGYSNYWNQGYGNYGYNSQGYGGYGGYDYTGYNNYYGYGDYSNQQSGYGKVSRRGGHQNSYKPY

For `Nc1nc(Nc2ccc(S(N)(=O)=O)cc2)nn1C(=O)c1c(F)cccc1F` [JNJ-7706621], which “SPR (Biacore 8K, CM5 chip, amine coupling)” value (p37AUF1 (AUF1, hnRNP D) [1]) is on record?
The value was “only one compound, JNJ-7706621, showed a typical binding curve shape”.

What about the “REMSA, inhibition of AUF1-RNA complex formation” value (p37AUF1 (AUF1, hnRNP D) [2]) of the same compound?
Its value is “After adding increasing JNJ-7706621, the bands representing RNA-AUF1 complex weakened”.

And the Tm (AUF1 (endogenous, CETSA))?
The Tm was “The melting temperature fitted from the curve in each cell decreased when treated with JNJ-7706621”.
